# Test results taken from patent US4871109A (priority 1988, dated 1989).
# Experiments:
# in vivo = details: rat
# rats = details: rat, in vivo
structure (smiles),measurement,setting,value
"FC(F)(F)OC(F)(F)C(F)(F)OC(F)(F)C(F)(F)OC(F)(F)C(F)(F)OC(F)(F)C(F)(F)OC(F)(F)C(F)(F)OC(F)(F)C(F)(F)OC(F)(F)C(F)(F)OC(F)(F)F [PFHG, 1,1,1,3,3,4,4,6,6,7,7,9,9,10,10,12,12,13,13,15,15,16,16,18, 18,19,19,21,21,22,22,24,24,24-tetratriacontafluoro-2,5,8,11, 14,17,20,23-octaoxatetetracosane]",LD50,in vivo,> 10000 mg/kg
same,toxicity (in words),rats,essentially nontoxic
